Our source for the EC50 and IC50 values is US5420129A, “Phenylsulfonylamide pyrimidine” (Hoffmann-La Roche Inc., priority 1992, dated 1995).

In one assay the test system is isolated rat aorta rings. Kind of assay: Endothelin-induced contractions in isolated rat aorta rings. Also on record: species or system rat (Wistar-Kyoto). Particulars: in the absence of test compounds; endothelium removed; 37° C.; read-out: EC50 of endothelin (concentration required for a half-maximum contraction). On the procedure:
II. Inhibition of endothelin-induced contractions in isolated rat aorta rings
Rings with a length of 5 mm were cut out from the thorax aorta of adult Wistar-Kyoto rats. The endothelium was removed by lightly rubbing the internal surface. Each ring was immersed at 37° C. in 10 ml of Krebs-Henseleit solution in an isolated bath while gassing with 95% O2 and 5% CO2. The isometric stretching of the rings was measured. The rings were stretched to a pre-tension of 3 g. After incubation for 10 minutes with the test compound or vehicle cumulative dosages of endothelin-1 were added. The activity of the test compound was determined by calculating the dosage ratios, i.e. the shift to the right (shift to higher values) of the EC50 of endothelin induced by 100 μM of test compound, with EC50 denoting the endothelin concentration required for a half-maximum contraction. […] The EC50 of endothelin in the absence of test compounds is 0.3 nM.

The target in assay [1] is endothelin receptors (human placenta membranes). Put plainly: Inhibition of endothelin binding to human placenta membranes (125I-endothelin). Particulars: 125I-endothelin 20 pM, 20° C. for 2 hours or 4° C. for 24 hours, read-out: IC50 (concentration required to inhibit 50% of the specific binding of 125I-endothelin). How it is done:
I. Inhibition of endothelin binding to human placenta membranes (see. Life Sci 44:1429 (1989))
Human placenta is homogenized in 5 mM Tris buffer, pH 7.4, which contains 1 mM MgCl2 and 250 mM sucrose. The homogenizate is centrifuged at 4° C. and 3000 g for 15 minutes, the supernatant containing the plasma membrane fraction is centrifuged with 72000 g for 30 minutes and the precipitate is washed with 75 mM Tris buffer, pH 7.4, which contains 25 mM MgCl2. Thereafter, precipitate obtained from in each case 10 g of original tissue is suspended in 1 ml of 75 mM Tris buffer, pH 7.4, containing 25 mM MgCl2 and 250 mM sucrose, and freeze-dried at --20° C. in 1 ml aliquots.
For the binding assay, the freeze-dried membrane preparations are thawed and, after centrifugation at 20° C. and 25000 g for 10 minutes, re-suspended in assay buffer (50 mM Tris buffer, pH 7.4, containing 25 mM MnCl2, 1 mM EDTA and 0.5% of bovine serum albumin). 100 μl of this membrane suspension containing 70 μg of protein are incubated with 50 μl of ^125 I-endothelin (specific activity 2200 Ci/mMol) in assay buffer (25000 cpm, final concentration 20 pM) and 100 μl of assay buffer containing varying concentrations of test compound. The incubation is carried out at 20° C. for 2 hours or at 4° C. for 24 hours. The separation of free and membrane-bound radioligands is carried out by filtration over a glass fiber filter.
The inhibitory activity of compounds of formula I determined in test procedure I is given in Table 1 as the IC50, that as the concentration […] which is required to inhibit 50% of the specific binding of ^1251 -endothelin.

For “endothelin: endothelin-1, agonist added in cumulative dosages to contract rat aorta rings”, the EC50 with isolated rat aorta rings worked out at 0.0003 µM.

Take `COc1ccc(Cl)c(Oc2c(COCCO)nc(N3CCOCC3)nc2NS(=O)(=O)c2ccc(C(C)(C)C)cc2)c1` [Example 5, 4-tert-butyl-N-[5-(2-chloro-5methoxy-phenoxy)-6-(2-hydroxy-ethoxymethyl)-2-(morpholin-4-yl)-pyrimidin-4-yl]-benzenesulphonamide]: the IC50 in assay [1] amounted to 0.035 µM.

As for `COc1ccc(Cl)c(Oc2c(CO)nc(N3CCOCC3)nc2NS(=O)(=O)c2ccc(C(C)(C)C)cc2)c1` [Example 3, 4-tert-butyl-N-[5-(2-chloro-5-methoxy-phenoxy)-6-hydroxymethyl-2-(morpholin-4-yl)-pyrimidin-4-yl]-benzenesulphonamide], the IC50 in assay [1] worked out at 0.13 µM.

`COc1ccc(Cl)c(Oc2c(COCCO)ncnc2NS(=O)(=O)c2ccc(C(C)(C)C)cc2)c1` [Example 10, 4-tert-Butyl-N-[5-(2-chloro-5-methoxy-phenoxy)-6-(2-hydroxy-ethoxy-methyl)-pyrimidin-4-yl]-benzenesulphonamide]: in assay [1], the IC50 worked out at 0.184 µM.

In the case of `COc1ccc(Cl)c(Oc2c(COCC(O)CO)nc(N3CCOCC3)nc2NS(=O)(=O)c2ccc(C(C)(C)C)cc2)c1` (racemic) [Example 13, (R,S)-4-tert-butyl-N-[5-(2-chloro-5-methoxy-phenoxy)-6-(2,3-dihydroxy-propoxymethyl)-2-(morpholin-4-yl)-pyrimidin-4yl]-benzenesulphonamide], the IC50 in assay [1] was determined as 0.182 µM.
